The values that follow come from patent publication US7732618B2, “Benzimidazole acetic acids exhibiting CRTH2 receptor antagonism and uses thereof” (Wyeth, priority 2004, dated 2010).

The assay addresses T1, human CRTH2 (Homo sapiens, UniProt Q9Y5Y4).
T1 sequence (Q9Y5Y4 1-395): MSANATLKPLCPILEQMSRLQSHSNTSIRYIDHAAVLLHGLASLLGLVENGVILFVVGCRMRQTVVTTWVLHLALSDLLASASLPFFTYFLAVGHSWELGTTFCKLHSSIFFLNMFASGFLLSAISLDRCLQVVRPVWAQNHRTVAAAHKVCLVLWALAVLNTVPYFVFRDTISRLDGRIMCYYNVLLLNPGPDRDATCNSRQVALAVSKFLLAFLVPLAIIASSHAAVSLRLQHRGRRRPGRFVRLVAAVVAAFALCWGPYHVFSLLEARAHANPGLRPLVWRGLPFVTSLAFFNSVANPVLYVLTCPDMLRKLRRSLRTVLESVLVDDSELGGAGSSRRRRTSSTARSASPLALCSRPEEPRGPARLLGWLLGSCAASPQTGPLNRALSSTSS
The assay is described as follows: CRTH-2 binding assay (scintillation proximity assay, inhibition of 3H-PGD2 binding). Particulars: membranes from 293EBNA-hCRTH2 cells, 3H-PGD2 3.6 nM; Ki calculated from IC50. The arrangement: expressed in transfected cells; host or cells: 293EBNA-hCRTH2 cells (membrane preparation). The protocol: A CRTH2 binding assay was developed to measure the ability of compounds to inhibit the binding of PGD2 to human CRTH2 using a scintillation proximity assay.
Membranes containing hCRTH2 receptors were prepared from 293EBNA-hCRTH2 cells (a 293EBNA cell line stably expressing human CRTH2). The cells were grown to confluency, harvested and washed with PBS. The cells were resuspended in 10 mM Hepes pH 7.4, 1 mM EDTA and protease inhibitors and incubated for 30 min on ice. The cells were homogenized and centrifuged for 10 min at 1000×g. The supernate was centrifuged for 30 min at 100,000×g and the membrane pellet was then resuspended in 10 mM Hepes pH 7.4 and 1 mM EDTA. The protein concentration of the membrane preparation was determined by Bradford assay (Bio-Rad).
The ability of compounds to inhibit the interaction of PGD2 to human CRTH2 was determined at seven compound concentrations. Compounds were serially diluted in DMSO then diluted into CRTH2 buffer (10 mM Hepes pH 7.4, 1 mM EDTA, 10 mM MnCl2) to six times the final desired concentration. 20 μL of the diluted compounds were transferred into non-surface binding 96-well plates (Corning). Each concentration was done in triplicate. In addition to test compounds, each plate contained 12 control wells. Six of these wells contained 20 μL of CRTH2 buffer. These wells were used to measure total binding. Six wells contained 20 μL of CRTH2 buffer plus 1.5 mM indomethacin. These wells were used to measure non-specific binding. Next, 293EBNA-hCRTH2 membranes were resuspended in CRTH2 buffer with glycerol (10 mM Hepes pH 7.4, 1 mM EDTA, 10 mM MnCl2, 25% glycerol) so that the final concentration was approximately 20 μg/100 μL. Polylysine-coated yttrium silicate SPA beads (Amersham) were added to the membrane mix to a concentration of 0.4 mg/100 μL and finally ^3H-PGD2 was added to the membrane/SPA bead mix to 3.6 nM. 100 μL of the membrane/SPA bead/^3H-PGD2 mix was added to each well of the non-surface binding plates containing the diluted compound or controls. The plates were incubated for 2 hours at room temperature with shaking and then the plates were counted on a Microbeta scintillation counter (Perkin Elmer) for 1 min per well.
IC50 values were determined from the experimental results by nonlinear regression using Prism 4.0 software. The IC50 values were then used in conjunction with the Kd for hCRTH2 and the ^3H-PGD2 concentration used in the experiment to calculate the Ki for each compound.

pKi: −log10 of the molar value.

Turning to `CCCc1nc2cc(NS(=O)(=O)c3ccc(F)cc3)ccc2n1CC(=O)O` [Example 1, [5-(4-Fluoro-benzenesulfonylamino)-2-propyl-benzoimidazol-1-yl]-acetic acid], the pKi was > 6.00.

With `CCCc1nc2cc(N(Cc3ccc(F)cc3)S(=O)(=O)c3ccc(F)cc3)ccc2n1CC(=O)O` [Example 19, {5-[(4-Fluoro-benzenesulfonyl)-(4-fluoro-benzyl)-amino]-2-propyl-benzoimidazol-1-yl}-acetic acid], the pKi was > 7.00.

On to `CCCc1nc2cc(N(CCCc3ccccc3)S(=O)(=O)c3ccc(F)cc3)ccc2n1CC(=O)O` [Example 48, {5-[(4-Fluoro-benzenesulfonyl)-(3-phenyl-propyl)-amino]-2-propyl-benzoimidazol-1-yl}-acetic acid], for which the pKi is > 7.00.

As for `CC(C)c1nc2cc(NS(=O)(=O)c3ccc(F)cc3)ccc2n1CC(=O)O` [Example 13, [5-(4-Fluoro-benzenesulfonylamino)-2-isopropyl-benzoimidazol-1-yl]-acetic acid], the pKi is > 6.00.

`CCCc1nc2cc(N(Cc3ccc(F)cc3)C(=O)c3ccccc3)ccc2n1CC(=O)O` [Example 32, {5-[Benzoyl-(4-fluoro-benzyl)-amino]-2-propyl-benzoimidazol-1-yl}-acetic acid]: the pKi was > 6.00.

Turning to `CCCc1nc2cc(N(Cc3ccccc3)C(=O)c3cccc(Cl)c3)ccc2n1CC(=O)O` [Example 62, {5-[Benzyl-(3-chloro-benzoyl)-amino]-2-propyl-benzoimidazol-1-yl}-acetic acid], the negative-log Ki (pKi) was > 6.00.

For `CCCc1nc2cc(N(CCC(C)C)S(=O)(=O)c3ccc(F)cc3)ccc2n1CC(=O)O` [Example 20, {5-[(4-Fluoro-benzenesulfonyl)-(3-methyl-butyl)-amino]-2-propyl-benzoimidazol-1-yl}-acetic acid], the pKi was > 7.00.

In the case of `CCCc1nc2cc(N(Cc3cccc(C(F)(F)F)c3)S(=O)(=O)c3ccc(F)cc3)ccc2n1CC(=O)O` [Example 51, {5-[(4-Fluoro-benzenesulfonyl)-(3-trifluoromethyl-benzyl)-amino]-2-propyl-benzoimidazol-1-yl}-acetic acid], the negative logarithm of the Ki (pKi) is > 6.00.

Take `CCCc1nc2cc(N(CC(=O)OCC)S(=O)(=O)c3ccc(F)cc3)ccc2n1CC(=O)O` [Example 18, {5-[Ethoxycarbonylmethyl-(4-fluoro-benzenesulfonyl)-amino]-2-propyl-benzoimidazol-1-yl}-acetic acid]: the pKi is > 6.00.

As for `CCCc1nc2c(N(Cc3ccccc3)S(=O)(=O)Cc3ccc(F)cc3)cccc2n1CC(=O)O` [Example 39, {4-[Benzyl-(4-fluoro-phenylmethanesulfonyl)-amino]-2-propyl-benzoimidazol-1-yl}-acetic acid], the pKi was > 6.00.

On to `CCCc1nc2cc(N(C(C)C)S(=O)(=O)c3ccc(F)cc3)ccc2n1CC(=O)O` [Example 21, {5-[(4-Fluoro-benzenesulfonyl)-isopropyl-amino]-2-propyl-benzoimidazol-1-yl}-acetic acid], for which the pKi is > 7.00.

Regarding `CCCc1nc2cc(N(Cc3ccccc3)C(=O)c3c(F)cccc3F)ccc2n1CC(=O)O` [Example 68, {5-[Benzyl-(2,6-difluoro-benzoyl)-amino]-2-propyl-benzoimidazol-1-yl}-acetic acid], the pKi was > 5.00.

With `CCCc1nc2cc(N(Cc3ccc(OC(F)(F)F)cc3)S(=O)(=O)c3ccc(F)cc3)ccc2n1CC(=O)O` [Example 53, {5-[(4-Trifluoromethoxy-benzyl)-(4-fluoro-benzenesulfonyl)-amino]-2-propyl-benzoimidazol-1-yl}-acetic acid], the pKi was > 7.00.

For `CCCc1nc2cc(N3C(=O)c4ccccc4S3(=O)=O)ccc2n1CC(=O)O` [Example 26, [2-Propyl-5-(1,1,3-trioxo-1,3-dihydro-1λ^6-benzo[d]isothiazol-2-yl)-benzoimidazol-1-yl]-acetic acid], the pKi was > 5.00.
